The record followed here is patent US20120184556A1, “SUBSTITUTED ENZOIMIDAZOLESULFONAMIDES AND SUBSTITUTED INDOLESULFONAMIDES AS MGLUR4 POTENTIATORS” (priority 2009, published 2012).

Each structure is given as a SMILES string. Structures can show the parent of a compound that is named as a salt.

This assay deals with T1, human mGluR4 (Homo sapiens, UniProt Q14833).
T1 construct: expressed in transfected cells; host or cells: Chinese Hamster Ovary (CHO) cells
In words: human mGluR4 potentiation assay, CHO cells, Fluo-4 calcium fluorescence, agonist EC20. The format is cell-based. The note with it: for Emax: CHO, maximum extent of potentiation, human mGluR4, read-out: GluMax; for EC50: potentiation of human mGluR4 response to EC20 agonist, read-out: hEC50. How it is done:
The disclosed compounds and compositions can be evaluated for their ability to act as a potentiator of metabotropic glutamate receptor activity, in particular mGluR4 activity, by any suitable known methodology known in the art. For example, Chinese Hamster Ovary (CHO) cells transfected with human mGluR4 or HEK cells co-transfected with rat mGluR4 and the G-protein regulated Inwardly Rectifying Potassium channel (GIRK) were plated in clear bottom assay plates for assay in a Hamamatsu FDSS Fluorometric Plate Reader. The cells were loaded with either the Ca2+-sensitive fluorescent dye Fluo-4 or the thallium responsive dye BTC, AM and the plates were washed and placed into a suitable kinetic plate reader. For human mGluR4 assays, a fluorescence baseline was established for 3-5 seconds, the disclosed compounds were then added to the cells, and the response in cells was measured. Approximately two and a half minutes later, a concentration of mGluR4 agonist (e.g. glutamate or L-AP4) eliciting approximately 20% (EC20) of the maximal agonist response was added to the cells, and the response was measured. Two minutes later, a concentration of mGluR4 agonist (e.g. glutamate or L-AP4) eliciting 80% (EC80) of the maximal agonist response was added to the cells, and the response was measured. For rat mGluR4/GIRK experiments, a baseline was established for approximately five seconds, disclosed compounds were added, and either an EC20 or EC80 concentration of agonist was added approximately two and one half minutes later. Potentiation of the agonist response of mGluR4 by the disclosed compounds was observed as an increase in response to the EC20 concentration of agonist in the presence of compound compared to the response to agonist in the absence of compound. Similarly, antagonism of the agonist response of mGluR4 by the disclosed compounds was observed as a decrease in response to the EC80 concentration of agonist in the presence of compound compared to the response to agonist in the absence of compound.
The above described assay operated in two modes. In the first mode, a range of concentrations of the disclosed compounds are added to cells, followed by a single fixed concentration of agonist. If the compound acts as a potentiatior, an EC50 value for potentiation and a maximum extent of potentiation by the compound at this concentration of agonist is determined by non-linear curve fitting. If the compound acts as a noncompetitive antagonist, an IC50 value is determined by non-linear curve fitting. In the second mode, several fixed concentrations of the disclosed compounds are added to various wells on a plate, followed by a range in concentrations of agonist for each concentration of disclosed compound. The EC50 values for the agonist at each concentration of compound are determined by non-linear curve fitting. A decrease in the EC50 value of the agonist with increasing concentrations of the sample compound (a leftward shift of the agonist concentration-response curve) is an indication of the degree of mGluR4 potentiation at a given concentration of the sample compound. A decrease in the maximal response of the agonist with increasing concentrations of the sample compounds, with or without a rightward shift in agonist potency, is an indication of the degree of noncompetitive antagonism at mGluR4. The second mode also indicates whether the sample compounds also affect the maximum response to mGluR4 to agonists.

T1 sequence (Q14833 33-912): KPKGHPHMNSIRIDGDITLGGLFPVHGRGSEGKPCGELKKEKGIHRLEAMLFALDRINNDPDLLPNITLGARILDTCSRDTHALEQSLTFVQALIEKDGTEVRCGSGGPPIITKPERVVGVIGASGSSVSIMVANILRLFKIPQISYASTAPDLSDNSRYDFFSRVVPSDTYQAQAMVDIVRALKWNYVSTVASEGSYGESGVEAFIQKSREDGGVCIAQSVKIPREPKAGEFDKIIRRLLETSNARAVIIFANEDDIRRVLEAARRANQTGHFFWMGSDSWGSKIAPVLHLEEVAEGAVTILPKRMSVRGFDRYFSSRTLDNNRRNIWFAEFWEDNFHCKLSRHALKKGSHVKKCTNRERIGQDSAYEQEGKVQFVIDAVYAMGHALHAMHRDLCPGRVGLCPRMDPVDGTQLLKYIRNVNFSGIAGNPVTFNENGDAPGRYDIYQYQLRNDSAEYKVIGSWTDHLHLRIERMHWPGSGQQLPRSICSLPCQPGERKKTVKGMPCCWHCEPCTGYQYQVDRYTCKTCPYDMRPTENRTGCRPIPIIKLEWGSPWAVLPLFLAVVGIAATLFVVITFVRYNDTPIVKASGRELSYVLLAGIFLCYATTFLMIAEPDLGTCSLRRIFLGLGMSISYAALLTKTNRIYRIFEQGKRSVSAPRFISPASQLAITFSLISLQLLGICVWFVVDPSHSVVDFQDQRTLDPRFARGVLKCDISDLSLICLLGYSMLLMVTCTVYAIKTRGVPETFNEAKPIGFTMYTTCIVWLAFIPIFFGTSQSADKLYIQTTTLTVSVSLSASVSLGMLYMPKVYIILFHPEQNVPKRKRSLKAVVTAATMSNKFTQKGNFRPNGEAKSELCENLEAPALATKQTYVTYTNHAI

In the case of `O=S(=O)(Nc1ccccc1Cl)c1ccc2[nH]c(-c3ncccc3F)nc2c1` [Example 15, N-(2-Chlorophenyl)-2-(3-fluoropyridin-2-yl)-1H-benzo[d]imidazole-5-sulfonamide], the Emax was determined as 192% and the EC50 came to 747 nM.
In the same order, the values of `O=S(=O)(Nc1cccnc1)c1ccc2[nH]c(-c3ccccc3)nc2c1` [Example 16, 2-Phenyl-N-(pyridin-3-yl)-1H-benzo[d]imidazole-5-sulfonamide bis TFA salt] are 41% and 5950 nM.
As for `O=S(=O)(Nc1ccccc1F)c1ccc2[nH]c(-c3ccccc3)nc2c1` [Example 17, N-(2-Fluorophenyl)-2-phenyl-1H-benzo[d]imidazole-5-sulfonamide TFA salt], the Emax was 87% and the EC50 is 320 nM.
As to `O=S(=O)(NC1CCCC1)c1ccc2[nH]c(-c3ccccc3)nc2c1` [Example 18, N-Cyclopentyl-2-phenyl-1H-benzo[d]imidazole-5-sulfonamide TFA salt], the Emax was determined as 105% and the EC50 amounted to 11700 nM.
Turning to `N#Cc1ccc(NS(=O)(=O)c2ccc3[nH]c(-c4ccccc4)nc3c2)cc1` [Example 19, N-(4-Cyanophenyl)-2-phenyl-1H-benzo[d]imidazole-5-sulfonamide TFA salt], the Emax came to 24% and the EC50 was found to be 4900 nM.
As for `O=S(=O)(Nc1ccccc1Cl)c1ccc2[nH]c(-c3cccc4c3OCO4)nc2c1` [Example 20, 2-(benzo[d][1,3]dioxol-4-yl)-N-(2-chlorophenyl)-1H-benzo[d]imidazole-5-sulfonamide], the Emax was 49% and the EC50 was 172 nM.
For `O=S(=O)(Nc1ccccc1Cl)c1ccc2[nH]c(-c3ccccc3F)nc2c1` [Example 21, N-(2-chlorophenyl)-2-(2-fluorophenyl)-1H-benzo[d]imidazole-5-sulfonamide], the Emax is 64% and the EC50 turned out to be 988 nM.
Take `O=S(=O)(Nc1ccccc1Cl)c1ccc2[nH]c(-c3c(F)cccc3Cl)nc2c1` [Example 22, 2-(2-chloro-6-fluorophenyl)-N-(2-chlorophenyl)-1H-benzo[d]imidazole-5-sulfonamide]: the Emax stood at 59% and the EC50 was 5750 nM.
In the same order, the values of `O=S(=O)(Nc1ccccc1Cl)c1ccc2[nH]c(-c3ccccc3C(F)(F)F)nc2c1` [Example 23, N-(2-chlorophenyl)-2-(2-(trifluoromethyl)phenyl)-1H-benzo[d]imidazole-5-sulfonamide] are 36% and 9440 nM.
As to `O=S(=O)(Nc1ccccc1Cl)c1ccc2[nH]c(-c3c(F)cccc3F)nc2c1` [Example 24, N-(2-chlorophenyl)-2-(2,6-difluorophenyl)-1H-benzo[d]imidazole-5-sulfonamide], the Emax is 160% and the EC50 was above 10000 nM.
Regarding `O=S(=O)(Nc1ccccc1Cl)c1ccc2[nH]c(-c3ccco3)nc2c1` [Example 25, N-(2-chlorophenyl)-2-(furan-2-yl)-1H-benzo[d]imidazole-5-sulfonamide], the Emax came to 96% and the EC50 was found to be 747 nM.
Take `O=S(=O)(Nc1ccccc1Cl)c1ccc2[nH]c(-c3ccc(C(F)(F)F)o3)nc2c1` [Example 26, N-(2-chlorophenyl)-2-(5-(trifluoromethyl)furan-2-yl)-1H-benzo[d]imidazole-5-sulfonamide]: the Emax is 68% and the EC50 worked out at 328 nM.
For the molecule `O=S(=O)(Nc1ccccc1Cl)c1ccc2[nH]c(-c3ncc[nH]3)nc2c1` [Example 27, N-(2-chlorophenyl)-2-(1H-imidazol-2-yl)-1H-benzo[d]imidazole-5-sulfonamide], the Emax was 69% and the EC50 worked out at 12800 nM.
In the same order, the values of `O=S(=O)(Nc1c(F)cccc1F)c1ccc2[nH]c(-c3ccccc3)nc2c1` [Example 28, N-(2,6-difluorophenyl)-2-phenyl-1H-benzo[d]imidazole-5-sulfonamide] are 38% and 318 nM.
Consider `Cc1ccc(-c2nc3cc(S(=O)(=O)Nc4ccccc4Cl)ccc3[nH]2)o1` [Example 29, N-(2-chlorophenyl)-2-(5-methylfuran-2-yl)-1H-benzo[d]imidazole-5-sulfonamide], for which the Emax is 52% and the EC50 came out at 76 nM.
Regarding `O=S(=O)(Nc1ccccc1Cl)c1ccc2[nH]c(-c3ccc(Cl)o3)nc2c1` [Example 30, 2-(5-chlorofuran-2-yl)-N-(2-chlorophenyl)-1H-benzo[d]imidazole-5-sulfonamide], the Emax worked out at 76% and the EC50 worked out at 199 nM.
On to `O=S(=O)(Nc1ccccc1Cl)c1ccc2[nH]c(-c3ncc(F)cc3F)nc2c1` [Example 31, N-(2-chlorophenyl)-2-(3,5-difluoropyridin-2-yl)-1H-benzo[d]imidazole-5-sulfonamide], for which the Emax is 123% and the EC50 stood at 473 nM.
With `O=S(=O)(Nc1ccccc1F)c1ccc2[nH]c(-c3ccccn3)nc2c1` [Example 33, N-(2-fluorophenyl)-2-(pyridin-2-yl)-1H-benzo[d]imidazole-5-sulfonamide], the Emax is 246% and the EC50 came out at 186 nM.
The like results for `O=S(=O)(Nc1ccccc1Cl)c1ccc2[nH]c(-c3cc(Br)no3)nc2c1` [Example 34, 2-(3-bromoisoxazol-5-yl)-N-(2-chlorophenyl)-1H-benzo[d]imidazole-5-sulfonamide] were, in that order, 149% and 1100 nM.
`Cc1cc(-c2nc3cc(S(=O)(=O)Nc4ccccc4Cl)ccc3[nH]2)on1` [Example 35, N-(2-chlorophenyl)-2-(3-methylisoxazol-5-yl)-1H-benzo[d]imidazole-5-sulfonamide]: the Emax is 87% and the EC50 came out at 1980 nM.
In the same order, the values of `O=S(=O)(Nc1ccc(F)cc1F)c1ccc2[nH]c(-c3ccccc3)nc2c1` [Example 36, N-(2,4-difluorophenyl)-2-phenyl-1H-benzo[d]imidazole-5-sulfonamide] are 73% and 296 nM.
Regarding `O=S(=O)(Nc1ccccc1F)c1ccc2[nH]c(-c3cnccn3)nc2c1` [Example 37, N-(2-fluorophenyl)-2-(pyrazin-2-yl)-1H-benzo[d]imidazole-5-sulfonamide], the Emax stood at 118% and the EC50 was found to be 5490 nM.
As for `O=S(=O)(Nc1ccccc1F)c1ccc2[nH]c(-c3ccsc3)nc2c1` [Example 38, N-(2-fluorophenyl)-2-(thiophen-3-yl)-1H-benzo[d]imidazole-5-sulfonamide], the Emax worked out at 42% and the EC50 came out at 369 nM.
`O=S(=O)(Nc1ccccc1F)c1ccc2[nH]c(-c3ccncn3)nc2c1` [Example 39, N-(2-fluorophenyl)-2-(pyrimidin-4-yl)-1H-benzo[d]imidazole-5-sulfonamide]: the Emax amounted to 156% and the EC50 was found to be 4820 nM.
As to `O=S(=O)(Nc1ccccc1F)c1ccc2[nH]c(-c3nccs3)nc2c1` [Example 40, N-(2-fluorophenyl)-2-(thiazol-2-yl)-1H-benzo[d]imidazole-5-sulfonamide], the Emax turned out to be 222% and the EC50 is 756 nM.
On to `Cn1ccnc1-c1nc2cc(S(=O)(=O)Nc3ccccc3Cl)ccc2[nH]1` [Example 41, N-(2-chlorophenyl)-2-(1-methyl-1H-imidazol-2-yl)-1H-benzo[d]imidazole-5-sulfonamide], for which the Emax worked out at 83% and the EC50 was 9470 nM.
For `O=S(=O)(Nc1ccc(F)cc1F)c1ccc2[nH]c(-c3ccsc3)nc2c1` [Example 42, N-(2,4-difluorophenyl)-2-(thiophen-3-yl)-1H-benzo[d]imidazole-5-sulfonamide], the Emax was found to be 50% and the EC50 was 226 nM.
Consider `O=S(=O)(Nc1ccccc1Cl)c1ccc2[nH]c(-c3ccno3)nc2c1` [Example 43, N-(2-chlorophenyl)-2-(isoxazol-5-yl)-1H-benzo[d]imidazole-5-sulfonamide], for which the Emax amounted to 69% and the EC50 turned out to be 2830 nM.
